Source: article PMC10363480 (Plant Communications, 2023)

system: mitochondria or chloroplast of Chlamydomonas reinhardtii; assay: Subcellular localization of Venus reporter by epifluorescence microscopy (manual targeting assignment); format: cell-based; details: manual targeting assignment of the Venus reporter construct in Chlamydomonas: Neither / Mitochondria / Chloroplast / Dual, (partial) = partial targeting
Procedure, shortened: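 Targeting peptide variants fused to Venus reporter, transformed into Chlamydomonas wild-type T222+ (CC-5101); three independent transformant lines per construct. Localization assigned manually from epifluorescence images using chlorophyll autofluorescence for chloroplast and 0.1 μM MitoTracker Red CMXRos (30 min) for mitochondria. Automated segmentation used for validation.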

Sequence	Localisation
MQVTMKSSAVSGQRVMGLLLDTLRGAARDIAGIALERLRCRITGCRP [c.R2G.R]	Mitochondria
MQVTMKSSAVSGQRVMGLLLDTLRGAARDIAGIALERLRCRITGCRPLTQTAESFRGVSSQFFDAPNGPSVKQVLIEDEW [c.R2G.R.m]	Mitochondria
MQVTMKSSAVSGQRVMGLLLDTLRGAARDIAGIALERLRCRITGCRPSVRRAQLQVVASSRKQMGRWRSIDAGVDASDDQ [c.R2G.R.c]	Dual
MQVTMKSSAVSGQRVMGWIRDFGRRIERVGQHTRDATIQTIAVAQQAANVAATLRG [c.S1D.R]	Mitochondria
MQVTMKSSAVSGQRVMGWIRDFGRRIERVGQHTRDATIQTIAVAQQAANVAATLRGLTQTAESFRGVSSQFFDAPNGPSVKQVLIEDEW [c.S1D.R.m]	Dual
MQVTMKSSAVSGQRVMGWIRDFGRRIERVGQHTRDATIQTIAVAQQAANVAATLRGSVRRAQLQVVASSRKQMGRWRSIDAGVDASDDQ [c.S1D.R.c]	Chloroplast
MQVTMKSSAVSGQRVMLKKVGQSLVPFAKAG [c.MH.K]	Neither
MQVTMKSSAVSGQRVMLKKVGQSLVPFAKAGLTQTAESFKGVSSQFFDAPNGPSVKQVLIEDEW [c.MH.K.m]	Neither
MQVTMKSSAVSGQRVMLKKVGQSLVPFAKAGSVRRAQLQVVASSRKQMGRWRSIDAGVDASDDQ [c.MH.K.c]	Chloroplast
MQVTMKSSAVSGQRVMLKRVGQSLVPFARAG [c.MH.R]	Neither
MQVTMKSSAVSGQRVMLKRVGQSLVPFARAGLTQTAESFRGVSSQFFDAPNGPSVKQVLIEDEW [c.MH.R.m]	Neither
MQVTMKSSAVSGQRVMLKRVGQSLVPFARAGSVRRAQLQVVASSRKQMGRWRSIDAGVDASDDQ [c.MH.R.c]	Chloroplast
MQVTMKSSAVSGQRVRYYGNGVSCNRRGCSVDWGRAIGIIGNNAAANLTTGGRAGWRG [c.EHF.R]	Chloroplast (partial)
MQVTMKSSAVSGQRVRYYGNGVSCNRRGCSVDWGRAIGIIGNNAAANLTTGGRAGWRGLTQTAESFRGVSSQFFDAPNGPSVKQVLIEDEW [c.EHF.R.m]	Chloroplast
MQVTMKSSAVSGQRVRYYGNGVSCNRRGCSVDWGRAIGIIGNNAAANLTTGGRAGWRGSVRRAQLQVVASSRKQMGRWRSIDAGVDASDDQ [c.EHF.R.c]	Chloroplast
MQVTMKSSAVSGQRVSFLTTFRDLAIRAARSAGQSVLSTLSCRLSNTC [c.B2I.R]	Mitochondria (partial)
MQVTMKSSAVSGQRVSFLTTFRDLAIRAARSAGQSVLSTLSCRLSNTCLTQTAESFRGVSSQFFDAPNGPSVKQVLIEDEW [c.B2I.R.m]	Dual
MQVTMKSSAVSGQRVSFLTTFRDLAIRAARSAGQSVLSTLSCRLSNTCSVRRAQLQVVASSRKQMGRWRSIDAGVDASDDQ [c.B2I.R.c]	Chloroplast
MRYYGNGVSCNRRGCSVDWGRAIGIIGNNAAANLTTGGRAGWRG [EHF.R]	Neither
MRYYGNGVSCNRRGCSVDWGRAIGIIGNNAAANLTTGGRAGWRGLTQTAESFRGVSSQFFDAPNGPSVKQVLIEDEW [EHF.R.m]	Chloroplast
MRYYGNGVSCNRRGCSVDWGRAIGIIGNNAAANLTTGGRAGWRGSVRRAQLQVVASSRKQMGRWRSIDAGVDASDDQ [EHF.R.c]	Chloroplast
MSFLTTFRDLAIRAARSAGQSVLSTLSCRLSNTC [B2I.R]	Mitochondria
MSFLTTFRDLAIRAARSAGQSVLSTLSCRLSNTCLTQTAESFRGVSSQFFDAPNGPSVKQVLIEDEW [B2I.R.m]	Mitochondria
MSFLTTFRDLAIRAARSAGQSVLSTLSCRLSNTCSVRRAQLQVVASSRKQMGRWRSIDAGVDASDDQ [B2I.R.c]	Mitochondria
MSVRRAQLQVVASSRKQMGRWRSIDAGVDASDDQ [-.c]	Neither

same assay, conditions: peptide-Venus reporter construct expressed in Chlamydomonas reinhardtii; manual targeting assignment (Neither / Mitochondria / Chloroplast / Dual; partial = partial targeting)

Sequence	Localisation
MQVTMKSSAVSGQRVMKYYGNGVHCTKSGCSVNWGEAFSAGVHRLANGGNGFW [c.LCA.K]	Neither
MQVTMKSSAVSGQRVMKYYGNGVHCTKSGCSVNWGEAFSAGVHRLANGGNGFWLTQTAESFRGVSSQFFDAPNGPSVKQVLIEDEW [c.LCA.K.m]	Chloroplast
MQVTMKSSAVSGQRVMKYYGNGVHCTKSGCSVNWGEAFSAGVHRLANGGNGFWSVRRAQLQVVASSRKQMGRWRSIDAGVDASDDQ [c.LCA.K.c]	Chloroplast (partial)
MQVTMKSSAVSGQRVMKYYGNGVHCTRSGCSVNWGEAFSAGVHRLANGGNGFW [c.LCA.R]	Neither
MQVTMKSSAVSGQRVMKYYGNGVHCTRSGCSVNWGEAFSAGVHRLANGGNGFWLTQTAESFRGVSSQFFDAPNGPSVKQVLIEDEW [c.LCA.R.m]	Neither
MQVTMKSSAVSGQRVMKYYGNGVHCTRSGCSVNWGEAFSAGVHRLANGGNGFWSVRRAQLQVVASSRKQMGRWRSIDAGVDASDDQ [c.LCA.R.c]	Chloroplast
MQVTMKSSAVSGQRVMVNYGNGVSCSKTKCSVNWGIITHQAFRVTSGVASG [c.B15.K]	Neither
MQVTMKSSAVSGQRVMVNYGNGVSCSKTKCSVNWGIITHQAFRVTSGVASGLTQTAESFRGVSSQFFDAPNGPSVKQVLIEDEW [c.B15.K.m]	Chloroplast
MQVTMKSSAVSGQRVMVNYGNGVSCSKTKCSVNWGIITHQAFRVTSGVASGSVRRAQLQVVASSRKQMGRWRSIDAGVDASDDQ [c.B15.K.c]	Chloroplast
MQVTMKSSAVSGQRVMVNYGNGVSCSRTRCSVNWGIITHQAFRVTSGVASG [c.B15.R]	Chloroplast
MQVTMKSSAVSGQRVMVNYGNGVSCSRTRCSVNWGIITHQAFRVTSGVASGLTQTAESFRGVSSQFFDAPNGPSVKQVLIEDEW [c.B15.R.m]	Chloroplast
MQVTMKSSAVSGQRVMVNYGNGVSCSRTRCSVNWGIITHQAFRVTSGVASGSVRRAQLQVVASSRKQMGRWRSIDAGVDASDDQ [c.B15.R.c]	Chloroplast
MQVTMKSSAVSGQRVMWLSKTAKKLENSAKKRISEGIAIAIKGGSRSVRRAQLQVVASSRKQMGRWRSIDAGVDASDDQ [c.CP3.K.c]	Neither
MQVTMKSSAVSGQRVMWLSRTARRLENSARRRISEGIAIAIRGGSRSVRRAQLQVVASSRKQMGRWRSIDAGVDASDDQ [c.CP3.R.c]	Chloroplast
MVNYGNGVSCSKTKCSVNWGIITHQAFRVTSGVASG [B15.K]	Neither

same assay, conditions: targeting of the Venus reporter fused to the peptide, expressed in Chlamydomonas reinhardtii; manual assignment from epifluorescence microscopy; full or partial

Sequence	Localisation
MQVTMKSSAVSGQRVMGLLLDTLKGAAKDIAGIALEKLKCKITGCKP [c.R2G.K]	Mitochondria (partial)
MQVTMKSSAVSGQRVMGLLLDTLKGAAKDIAGIALEKLKCKITGCKPLTQTAESFRGVSSQFFDAPNGPSVKQVLIEDEW [c.R2G.K.m]	Mitochondria
MQVTMKSSAVSGQRVMGLLLDTLKGAAKDIAGIALEKLKCKITGCKPSVRRAQLQVVASSRKQMGRWRSIDAGVDASDDQ [c.R2G.K.c]	Mitochondria (partial)
MQVTMKSSAVSGQRVMGWIRDFGKRIERVGQHTRDATIQTIAVAQQAANVAATLKG [c.S1D.K]	Mitochondria
MQVTMKSSAVSGQRVMGWIRDFGKRIERVGQHTRDATIQTIAVAQQAANVAATLKGLTQTAESFRGVSSQFFDAPNGPSVKQVLIEDEW [c.S1D.K.m]	Dual
MQVTMKSSAVSGQRVMGWIRDFGKRIERVGQHTRDATIQTIAVAQQAANVAATLKGSVRRAQLQVVASSRKQMGRWRSIDAGVDASDDQ [c.S1D.K.c]	Chloroplast
MQVTMKSSAVSGQRVMKYYGNGVSCNKKGCSVDWGKAIGIIGNNAAANLTTGGKAGWKG [c.EHF.K]	Neither
MQVTMKSSAVSGQRVMKYYGNGVSCNKKGCSVDWGKAIGIIGNNAAANLTTGGKAGWKGLTQTAESFRGVSSQFFDAPNGPSVKQVLIEDEW [c.EHF.K.m]	Chloroplast
MQVTMKSSAVSGQRVMKYYGNGVSCNKKGCSVDWGKAIGIIGNNAAANLTTGGKAGWKGSVRRAQLQVVASSRKQMGRWRSIDAGVDASDDQ [c.EHF.K.c]	Chloroplast
MQVTMKSSAVSGQRVMSFLTTFKDLAIKAAKSAGQSVLSTLSCKLSNTC [c.B2I.K]	Mitochondria (partial)
MQVTMKSSAVSGQRVMSFLTTFKDLAIKAAKSAGQSVLSTLSCKLSNTCLTQTAESFRGVSSQFFDAPNGPSVKQVLIEDEW [c.B2I.K.m]	Mitochondria
MQVTMKSSAVSGQRVMSFLTTFKDLAIKAAKSAGQSVLSTLSCKLSNTCSVRRAQLQVVASSRKQMGRWRSIDAGVDASDDQ [c.B2I.K.c]	Chloroplast (partial)
MQVTMKSSAVSGQRVMWLSKTAKKLENSAKKRISEGIAIAIKGGSR [c.CP3.K]	Neither
MQVTMKSSAVSGQRVMWLSKTAKKLENSAKKRISEGIAIAIKGGSRLTQTAESFRGVSSQFFDAPNGPSVKQVLIEDEW [c.CP3.K.m]	Chloroplast
MQVTMKSSAVSGQRVMWLSRTARRLENSARRRISEGIAIAIRGGSR [c.CP3.R]	Chloroplast (partial)
MQVTMKSSAVSGQRVMWLSRTARRLENSARRRISEGIAIAIRGGSRLTQTAESFRGVSSQFFDAPNGPSVKQVLIEDEW [c.CP3.R.m]	Neither
MQVTMKSSAVSGQRVNIVVYWNFTLWHMDINARNAGCDGEGS [c.RP1.K]	Neither
MQVTMKSSAVSGQRVNIVVYWNFTLWHMDINARNAGCDGEGSLTQTAESFRGVSSQFFDAPNGPSVKQVLIEDEW [c.RP1.K.m]	Neither
MQVTMKSSAVSGQRVNIVVYWNFTLWHMDINARNAGCDGEGSSVRRAQLQVVASSRKQMGRWRSIDAGVDASDDQ [c.RP1.K.c]	Neither
MQVTMKSSAVSGQRVSVRRAQLQVVASSRKQMGRWRSIDAGVDASDDQ [c.-.c]	Chloroplast (partial)
MSFLTTFKDLAIKAAKSAGQSVLSTLSCKLSNTC [B2I.K]	Mitochondria
MSFLTTFKDLAIKAAKSAGQSVLSTLSCKLSNTCLTQTAESFRGVSSQFFDAPNGPSVKQVLIEDEW [B2I.K.m]	Mitochondria
MSFLTTFKDLAIKAAKSAGQSVLSTLSCKLSNTCSVRRAQLQVVASSRKQMGRWRSIDAGVDASDDQ [B2I.K.c]	Mitochondria
